According to patent US6338963B1, “Use of carbon monoxide dependent guanylyl cyclase modifiers to stimulate neuritogenesis” (NeoTherapeutics, Inc., priority 1994, dated 2002):

Columns and labels:
acetylcholine receptors = assay type: binding, mouse
adenosine receptor = test: Receptor ligand binding in vitro, adenosine
Method: AIT-082 was evaluated for its ability to inhibit ligand binding to 38 isolated receptors.

mice = test: Hot plate nocioception; assay type: in vivo; conditions: hot plate 55° C.
Method: Mice were placed on an electric hot plate (Ominitech) at 55° C. and the latency time until the subject licked his hind paw was measured. If there was no response by 45 seconds, the trial was terminated. By this test there was no effect of AIT-082 on nocioception.

C57BL/6 mice = test: Ethanol-induced working memory deficit (win-shift); assay type: in vivo; conditions: Ethanol 0.5 gm/kg i.p. + AIT-082 30 mg/kg i.p. 1 hour prior
Method: Six month old male C57BL/6 mice were evaluated in the win-shift model in combination with treatment with ethanol, a non-specific memory suppressant, and AIT-082. Subjects were treated with saline (control) or AIT-082 (30 mg/kg. i.p.) 1 hour prior to testing. Ethanol was administered at a dose of 0.5 gm/kg i.p. ten minutes prior to testing.

[1] = test system: cultured rat hippocampal neurons; test: NMDA-induced toxicity in cultured rat hippocampal neurons, astrocyte conditioned medium
Method: To determine whether or not AIT-082 afforded in vitro neuroprotection, the effect of AIT-082 on toxicity induced by N-methyl-D-aspartate (NMDA) in cultured rat hippocampal neurons was studied.
To determine whether AIT-082 protected against neuronal toxicity induced by NMDA, and whether astrocytes might be involved, cultured astrocytes were exposed to AIT-082 for 6 hr. The drug was then removed and cultures were kept in fresh medium for the following 20 hr. This conditioned medium was then added to primary cultures of rat hippocampal neurons on the seventh day in vitro, immediately after they had been exposed to a toxic pulse of NMDA.
It was next evaluated whether the addition of conditioned medium (CM) deriving from astrocyte cultures treated with 100 μM AIT-082 generated protection against damage induced by a toxic pulse with 100 μM NMDA in cultured neurons.
The effects of NMDA are shown in FIG. 66A on cortical cells and in FIG. 66B for hippocampal cells.

CNTF mRNA = test: RT-PCR of growth factor mRNA after T8 spinal cord hemisection: CNTF; assay type: in vivo, Wistar rats
NT-3 mRNA = test: RT-PCR of growth factor mRNA after T8 spinal cord hemisection: NT-3; assay type: in vivo, Wistar rats
BDNF = test: Two-site ELISA of growth factor protein in rat brain and spinal cord: BDNF; assay type: in vivo, F344 rats
Method: Adult female F344 rats were given either AIT-082 (doses: 30 mg/kg/day or a higher dose of 30 mg/ml (˜3,000 mg/kg/day); n=6 rats per group) in their drinking water, or water alone, as a vehicle for control. The duration of the study was seven days, at which time the rats were anesthesized and perfused with ice-cold saline. The brains of the rats were rapidly removed. The brains were placed on a chilled glass plate and dissected into the following regions: basal forebrain, frontal cortex, parietal cortex, cerebellum, spinal cord, and hippocampal formation. Tissues were stored at −70° C. until assayed in a specific two-site ELISA for either NGF, BDNF, NT-3, or GNDF.
The results are shown in FIGS. 45 (BDNF), 46 (NT-3), 47 (GDNF) and 48 (NGF). For the results shown in FIGS. 45-48, animals were given only water (VEH, n=6) or water with AIT-082 at either 30 mg/kg/day (n=6) or 30 mg/ml (n=6) for seven days. The levels of each growth factor were determined in the frontal cortex (F. Cor.), parietal cortex (P.Cor.), hippocampal formation (Hipp.), basal forebrain (B.F.), cerebellum (Cer.), or spinal cord (Cord) using a specific two-site ELISA for each growth factor.
Adult female rats were given AIT-082 (30 mg/kg/day) in their drinking water or drinking water alone (n=6 for each group) for seven days prior to receiving a bilateral fimbria fornix transection (FFT).
The results are shown in FIGS. 49 (BDNF), 50 (NT-3), 51 (GDNF) and 52 (NGF). For the results shown in the Figures, animals were given only water (VEH, n=3) or water with AIT-082 at 30 mg/kg/day (n=3). Levels of the growth factor were determined in frontal cortex (F.Cor.), parietal cortex (P.Cor.), hippocampal formation (Hipp.), basal forebrain (B.F.), cerebellum (Cer.), or spinal cord (Cord) using a specific two-site ELISA for each growth factor.
Aged female Fischer 344 rats (obtained from National Institute on Aging; 24 months on arrival) were given AIT-082 (30 mg/kg/day) in their drinking water or drinking water alone, for a period of 30 days (n=5 rats per group). After 30 days, animals were sacrificed and fresh tissues were dissected as described above. An additional set of young animals (n=5) was processed along with the aged rats for comparison.
Results are shown in FIGS. 53 (BDNF), 54 (NT3), 55 (GDNF), and 56 (NGF). As described above, for the results shown in these figures, aged rats (24 months of age) were given water (vehicle control; n=5) or water with AIT-082 (at 30 mg/kg/day; n=5 for 30 days). A separate group of young untreated animals was also included (n=5). Levels of each growth factor were determined in frontal cortex (F.Cor.), parietal cortex (P. Cor.), hippocampal formation (Hipp.), basal forebrain (B.F.), cerebellum (Cer.) or spinal cord (Cord) using a specific two-site ELISA.

bFGF = test: Summary of effects on growth factor mRNA and protein (Table R): bFGF; design: key: ± = mRNA; + = protein; nt = not tested
Source text: The constellation of effects of AIT-082 on production of mRNA encoding growth factors and on production of growth factor proteins is shown in Table R. The results summarized in […] show both transcriptional and translational effects on growth factors that are in the categories of neurotrophins, pleiotrophins, members of the S100 family of EF hand calcium binding proteins, and members of the TGFβ superfamily. As indicated, effects have been shown at both the mRNA (transcriptional) and protein (translational) levels.

Structure (SMILES): O=C(CCn1cnc2c(=O)[nH]cnc21)Nc1ccc(C(=O)O)cc1 [AIT-082, N-4-carboxyphenyl-3-(6-oxohydropurin-9-yl)propanamide]
- interference with the binding of QNB (acetylcholine receptors): no effect
- binding to the adenosine receptor (adenosine receptor): does not bind
- effect on nocioception (hot plate latency) (mice): no effect
- Correct trials (mean number of correct responses per 10 trials ± S.E.) (C57BL/6 mice): 7.89 ± 0.54
- reduction of cell damage ([1]; combination of 100 μM AIT-082 and CM, hippocampal cells, 100 μM NMDA): 70-80%
- reduction of the number of dead neurons and the production of LDH caused by NMDA ([1]; conditioned medium from astrocytes treated with AIT-082 (50-100 μM) for 6 hr): 50%
- CNTF mRNA level (CNTF mRNA; at the level of the lesion): increased mean CNTF mRNA levels over control animals, although not statistically so
- CNTF mRNA level (CNTF mRNA; caudal to lesion, 7 days): no significant effects
- CNTF mRNA level (CNTF mRNA; rostral to lesion, 3 days, sham-operated over lesion animals): significantly increased
- CNTF mRNA level (CNTF mRNA; rostral to lesion, 7 days, control animals, over water alone (p=0.017)): robust increase
- CNTF mRNA level (CNTF mRNA; rostral to lesion, 7 days, relative to lesion alone (p=0.056)): increased CNTF mRNA levels
- NT-3 mRNA level (NT-3 mRNA; at the level of the lesion): no significant differences
- NT-3 mRNA level (NT-3 mRNA; caudal to lesion, 7 days): no significant effects
- NT-3 mRNA level (NT-3 mRNA; caudal to lesion, control animals, 3 days): decreased
- BDNF protein levels over vehicle controls (BDNF; FFT-lesioned rats, 30 mg/kg/day, frontal cortex, significance not achieved): almost threefold
- BDNF protein levels (BDNF; aged rats, 30 mg/kg/day 30 days, any brain region): no effect
- BDNF protein levels over vehicle controls (BDNF; intact adult rats, 30 mg/kg/day in drinking water 7 days, frontal cortex): more than twofold
- BDNF protein levels over vehicle controls (BDNF; intact adult rats, 3000 mg/kg/day, frontal cortex): not seen
- BDNF protein levels over vehicle controls (BDNF; intact adult rats, spinal cord, not significant (p>0.05)): twofold
- bFGF, effect on mRNA/protein production (bFGF; Aged Brain): ±
- bFGF, effect on mRNA/protein production (bFGF; Lesioned Brain): ±
